Experiments:
[1] = molecular target: human Orexin type 1 receptors (Homo sapiens (Human), UniProt O43613); test: Scintillation Proximity Assay (SPA) binding assay, [3H]SB-674042 displacement, CHO-hOX1 membranes
[2] = molecular target: human Orexin type 2 receptors (Homo sapiens (Human), UniProt O43614); test: Scintillation Proximity Assay (SPA) binding assay, [3H]EMPA displacement, HEK-hOX2 membranes
human Orexin type 2 receptors, sequence (O43614 whole entry): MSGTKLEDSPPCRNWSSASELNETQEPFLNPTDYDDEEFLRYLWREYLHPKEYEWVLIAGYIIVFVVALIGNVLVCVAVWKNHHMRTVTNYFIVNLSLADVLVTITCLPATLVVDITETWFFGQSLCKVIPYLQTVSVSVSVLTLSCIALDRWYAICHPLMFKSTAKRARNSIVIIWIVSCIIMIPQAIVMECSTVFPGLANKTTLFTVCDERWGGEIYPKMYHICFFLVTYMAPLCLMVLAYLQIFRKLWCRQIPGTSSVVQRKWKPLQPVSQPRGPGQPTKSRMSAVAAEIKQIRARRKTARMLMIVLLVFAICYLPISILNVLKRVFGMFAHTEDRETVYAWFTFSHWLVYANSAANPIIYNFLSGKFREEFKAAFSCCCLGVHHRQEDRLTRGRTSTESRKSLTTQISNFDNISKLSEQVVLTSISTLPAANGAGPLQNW

human Orexin type 1 receptors, sequence (O43613 whole entry): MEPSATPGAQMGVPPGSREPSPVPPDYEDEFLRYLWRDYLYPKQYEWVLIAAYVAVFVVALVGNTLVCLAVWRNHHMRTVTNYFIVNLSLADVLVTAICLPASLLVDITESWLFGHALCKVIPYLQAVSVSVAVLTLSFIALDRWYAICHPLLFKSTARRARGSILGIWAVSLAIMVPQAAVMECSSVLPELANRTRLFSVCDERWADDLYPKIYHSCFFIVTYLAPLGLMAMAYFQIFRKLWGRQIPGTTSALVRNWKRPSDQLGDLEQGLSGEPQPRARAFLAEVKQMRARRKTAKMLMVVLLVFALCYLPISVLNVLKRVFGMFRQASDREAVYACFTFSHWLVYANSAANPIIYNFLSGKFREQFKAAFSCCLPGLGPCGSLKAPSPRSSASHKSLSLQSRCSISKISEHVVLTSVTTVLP

Row | SMILES | OX1 pKi (SPA binding) ([1]; Table 2, [3H]SB-674042 2 nM) | OX2 pKi (SPA binding) ([2]; Table 2, [3H]EMPA 2 nM) | OX1 pKi (SPA binding) ([1]; Table 1, [3H]SB-674042 2 nM) | OX2 pKi (SPA binding) ([2]; Table 1, [3H]EMPA 2 nM)
1 | Cc1ccc(-n2ncc(C)n2)c(C(=O)N2C3CC(C3)[C@H](C)C2COc2ccc(F)cc2)n1 (mixture of isomers) [Example 127, trans-3-[(4-fluorophenoxy)methyl]-4-methyl-2-[6-methyl-3-(4-methyl-2H-1,2,3-triazol-2-yl)pyridine-2-carbonyl]-2-azabicyclo[3.1.1]heptane] | 7.91 | 6.1 |  | 
2 | Cc1ccc(-n2nccn2)c(C(=O)N2C3CC(C3)[C@@H](C)C2CNc2ccc(Cl)cn2)n1 (mixture of isomers) [Example 156, cis-5-chloro-N-({4-methyl-2-[6-methyl-3-(2H-1,2,3-triazol-2-yl)pyridine-2-carbonyl]-2-azabicyclo[3.1.1]heptan-3-yl}methyl)pyridin-2-amine] | 7.53 | 5.35 |  | 
3 | C[C@@H]1C2CC(C2)N(C(=O)c2cc(F)ccc2-n2nccn2)C1CNc1cnc(C2CC2)cn1 (stereo partly shown) [Example 258] | 7.07 | 5.35 |  | 
4 | C[C@@H]1C2CC(C2)N(C(=O)c2ccc(F)cc2-n2nccn2)C1CNc1cnc(C(F)(F)F)cn1 (stereo partly shown) [Example 252] | 7.19 | 4.95 |  | 
5 | Cc1ccc(-n2ncc(C)n2)c(C(=O)N2C3CC(C3)[C@@H](C)C2COc2ccc(F)cc2)n1 (mixture of isomers) [Example 144, cis-3-[(4-fluorophenoxy)methyl]-4-methyl-2-[6-methyl-3-(4-methyl-2H-1,2,3-triazol-2-yl)pyridine-2-carbonyl]-2-azabicyclo[3.1.1]heptane] | 7.96 | 6.83 |  | 
6 | Cc1nc(C(=O)N2C3CC(C3)[C@H](C)C2COc2ccc(F)cc2)c(-c2ccccn2)s1 (mixture of isomers) [Example 123, trans-3-[(4-fluorophenoxy)methyl]-4-methyl-2-[2-methyl-5-(pyridin-2-yl)-1,3-thiazole-4-carbonyl]-2-azabicyclo[3.1.1]heptane] | 8.02 | 6.12 |  | 
7 | Cc1ccc(-n2nccn2)c(C(=O)N2C3CC(C3)[C@H](C)C2CNc2ccc(Cl)cn2)n1 (mixture of isomers) [Example 148, trans-5-chloro-N-({4-methyl-2-[6-methyl-3-(2H-1,2,3-triazol-2-yl)pyridine-2-carbonyl]-2-azabicyclo[3.1.1]heptan-3-yl}methyl)pyridin-2-amine] | 6.85 | 5.62 |  | 
8 | Cc1ccc(-c2ccccn2)c(C(=O)N2C3CC(C3)[C@@H](C)C2COc2ccc(F)cn2)n1 (mixture of isomers) [Example 131, cis-2′-(3-{[(-fluoropyridin-2-yl)oxy]methyl}-4-methyl-2-azabicyclo[3.1.1]heptane-2-carbonyl)-6′-methyl-2,3′-bipyridine] | 7.02 | 6.1 |  | 
9 | C[C@@H]1C2CC(C2)N(C(=O)c2nn(C)cc2-c2ccccc2)C1CNc1ccc(C(F)(F)F)cn1 (single isomer, unassigned) [Example 211, N-{[(3S,4R) or (3R,4R)-4-methyl-2-(1-methyl-4-phenyl-1H-pyrazole-3-carbonyl)-2-azabicyclo[3.1.1]heptan-3-yl]methyl}-5-(trifluoromethyl)pyridin-2-amine] | 8.91 | 6.25 |  | 
10 | Cc1nc(C(=O)N2C(COc3ccc(C(F)(F)F)cn3)CC3CC2C3)c(-c2ccccc2)s1 (stereo not shown) [Example 55] |  |  | 7.38 | 6.49
11 | C[C@H]1C2CC(C2)N(C(=O)c2cc(F)ccc2-n2nccn2)C1COc1ccc(F)cc1 (mixture of isomers) [Example 128, trans-2-[5-fluoro-2-(2H-1,2,3-triazol-2-yl)benzoyl]-3-{(4-fluorophenoxy)methyl]-4-methyl-2-azabicyclo[3.1.1]heptane] | 6.85 | 5.61 |  | 
12 | Cc1ccc(-n2nccn2)c(C(=O)N2C3CC(C3)[C@@H](C)C2COc2ccc(F)cc2)c1 (stereo partly drawn) [Example 97, cis-3-[(4-fluorophenoxy)methyl]-4-methyl-2-[5-methyl-2-(2H-1,2,3-triazol-2-yl)benzoyl]-2-azabicyclo[3.1.1]heptane] |  |  | 7.74 | 6.51
13 | Cc1ccc(-c2ncc(F)cn2)c(C(=O)N2C3CC(C3)[C@@H](C)C2COc2ccc(F)cc2)n1 (mixture of isomers) [Example 134, cis-3-[(4-fluorophenoxy)methyl]-2-[3-(5-fluropyrimidin-2-yl)-6-methylpyridine-2-carbonyl]-4-methyl-2-azabicyclo[3.1.1]heptane] | 7.85 | 7.03 |  | 
14 | Cc1cnc(-n2nccn2)c(C(=O)N2C3CC(C3)[C@@H](C)C2COc2ccc(F)cc2)n1 (mixture of isomers) [Example 145, cis-3-[(4-fluorophenoxy)methyl]-4-methyl-2-[6-methyl-3-(2H-1,2,3-triazol-2-yl)pyrazine-2-carbonyl]-2-azabicyclo[3.1.1]heptane] | 7.03 | 5.62 |  | 
15 | C[C@@H]1C2CC(C2)N(C(=O)c2cc(F)ccc2-n2nccn2)C1CNc1nc2cccnc2s1 (mixture of isomers) [Example 228, cis-N-({2-[5-fluoro-2-(2H-1,2,3-triazol-2-yl)benzoyl]-4-methyl-2-azabicyclo[3.1.1]heptan-3-yl}methyl)-[1,3]thiazolo[5,4-b]pyridin-2-amine] | 7.94 | 5.04 |  | 
16 | C[C@@H]1C2CC(C2)N(C(=O)c2nn(C)cc2-c2ncccn2)C1CNc1cnc(C(F)(F)F)cn1 (mixture of isomers) [Example 245, cis-N-({4-methyl-2-[1-methyl-4-(pyrimidin-2-yl)-1H-pyrazole-3-carbonyl]-2-azabicyclo[3.1.1]heptan-3-yl}methyl)-5-(trifluoromethyl)pyrazin-2-amine] | 7.55 | 4.49 |  | 
17 | Cc1ccc(-n2cccn2)c(C(=O)N2C3CC(C3)[C@H](C)C2COc2ccc(F)cc2)n1 (mixture of isomers) [Example 122, trans-3-[(4-fluorophenoxy)methyl]-4-methyl-2-[6-methyl-3-(1H-pyrazol-1-yl)pyridine-2-carbonyl]-2-azabicyclo[3.1.1]heptane] | 7.22 | 5.4 |  | 
18 | C[C@@H]1C2CC(C2)N(C(=O)c2cc(Cl)ccc2-n2nccn2)C1CNc1nc2ccc(F)cc2s1 (single isomer, unassigned) [Example 173, N-({(3R,4S) or (3S,4R)2-[5-chloro-2-(2H-1,2,3-triazol-2-yl)benzoyl]-4-methyl-2-azabicyclo[3.1.1]heptan-3-yl}methyl)-6-fluoro-1,3-benzothiazol-2-amine] | 9.36 | 6.53 |  | 
19 | Cc1ccc(-n2nccn2)c(C(=O)N2C3CC(C3)[C@@H](C)C2COc2ccc(F)cn2)n1 (mixture of isomers) [Example 130, cis-3-{[(5-fluoropyridin-2-yl)oxy]methyl}-4-methyl-2-[6-methyl-3-(2H-1,2,3-triazol-2-yl)pyridine-2-carbonyl]-2-azabicyclo[3.1.1]heptane] | 6.9 | 6.08 |  | 
20 | C[C@@H]1C2CC(C2)N(C(=O)c2cc(F)ccc2-n2nccn2)C1CNc1nc2ccc(F)cc2s1 (mixture of isomers) [Example 168, cis-6-fluoro-N-({2-[5-fluoro-2-(2H-1,2,3-triazol-2-yl)benzoyl]-4-methyl-2-azabicyclo[3.1.1]heptan-3-yl}methyl)-1,3-benzothiazol-2-amine] | 8.46 | 5.88 |  | 
21 | Cc1ccc(-n2nccn2)c(C(=O)N2C3CC(C3)[C@H](C)C2COc2ccc(F)cc2)n1 (stereo partly drawn) [Example 103, trans-3-[(4-fluorophenoxy)methyl]-4-methyl-2-[6-methyl-3-(2H-1,2,3-triazol-2-yl)pyridine-2-carbonyl]-2-azabicyclo[3.1.1]heptane] |  |  | 8 | 5.6
22 | Cc1cccc(-c2sc(C)nc2C(=O)N2C3CC(C3)[C@@H](C)C2COc2ccc(F)cc2)n1 (mixture of isomers) [Example 137, cis-3-[(4-fluorophenoxy)methyl]-4-methyl-2-[2-methyl-5-(6-methylpyridin-2-yl)-1,3-thiazole-4-carbonyl]-2-azabicyclo[3.1.1]heptane] | 7.97 | 6.34 |  | 
23 | Cc1nc(C(=O)N2C(COc3ccccc3F)CC3CC2C3)c(-c2ccccc2)s1 (stereo not shown) [Example 45] |  |  | 7.22 | 7.12
24 | C[C@@H]1C2CC(C2)N(C(=O)c2cc(C#N)ccc2-n2nccn2)C1CNc1cnc(C(F)(F)F)cn1 (mixture of isomers) [Example 237, cis-3-[4-methyl-3-({[5-(trifluoromethyl)pyrazin-2-yl]amino}methyl)-2-azabicyclo[3.1.1]heptane-2-carbonyl]-4-(2H-1,2,3-triazol-2-yl)benzonitrile] | 7.33 | 4.82 |  | 
25 | Cc1ccc(-n2nccn2)c(C(=O)N2C3CC(C3)[C@@H](C)C2CNc2nc3ccccc3o2)n1 (single isomer, unassigned) [Example 227, N-{[(3R,4S) or (3S,4R)-4-methyl-2-[6-methyl-3-(2H-1,2,3-triazol-2-yl)pyridine-2-carbonyl]-2-azabicyclo[3.1.1]heptan-3-yl]methyl}-1,3-benzoxazol-2-amine] | 7.11 | 4.9 |  | 
26 | Cc1nc(C(=O)N2C3CC(C3)[C@@H](C)C2COc2ccc(F)cc2)c(-c2ncccn2)s1 (stereo partly drawn) [Example 94, cis-3-[(4-fluorophenoxy)methyl]-4-methyl-2-[2-methyl-5-(pyrimidin-2-yl)-1,3-thiazole-4-carbonyl]-2-azabicyclo[3.1.1]heptane] |  |  | 8.04 | 6.35

From US11660293B2, “Substituted 2-azabicyclo[3.1.1]heptane and 2-azabicyclo[3.2.1]octane derivatives as orexin receptor antagonists” (Chronos Therapeutics Limited, priority 2017, dated 2023)
